{"source": "patent EP3544951B1", "about": "“SUBSTITUTED HEXARIC ACID DERIVATIVES AND USES THEREOF” (Plant Advanced Technologies Pat, priority 2016, dated 2018)", "key": {"astrocytes": {"system": "astrocytes", "test": "Survival of astrocytes in primary cortical neuron culture intoxicated with Aβ 1-42 peptide (GFAP staining)", "assay_type": "cell-based, rat", "conditions": "Aβ 1-42 20 µM, 24 h (Figure 3)", "excerpt": "(§1) Le but de cette étude est d'évaluer les effets de l'acide léontopodique B1 sur des neurones corticaux primaires de rat, intoxiqués par le peptide Aβ selon le modèle in vitro de la maladie d'Alzheimer décrit dans Callizot et al., 2013 (Callizot N. et al., Operational dissection of β-amyloid cytopathic effects on cultured neurons. J Neurosci Res. 2013, 91: 706-16). La survie des neurones et des astrocytes ainsi que l'intégrité du réseau de neurites sont évaluées.\n(§2) Des neurones corticaux de rat sont cultivés comme décrit dans Singer et al., 1999 (Singer C. et al., Mitogen-activated protein kinase pathway mediates estrogen neuroprotection after glutamate toxicity in primary cortical neurons. J Neurosci. 1999, 19: 2455-2463) et Callizot et al. (2013).\n(§3) En résumé, des rats femelles gravides sont tuées par dislocation cervicale après 15 jours de gestation. Les fœtus sont collectés et immédiatement placés dans un milieu glacé L15 Leibovitz (Pan Biotech, Batch: 8810315) additionné de 2% pénicilline (10,000 U/mL) et d'une solution de streptomycine (10 mg/mL) (PS; Pan Biotech, batch: 1451013) et 1% de albumine de sérum de bovin (BSA; Pan Biotech, batch: K180713). Le cortex est traité pendant 20 min à 37°C avec une solution de trypsine- EDTA (Pan Biotech, Batch: 3330914) à une concentration finale de 0,05% trypsine et 0,02% EDTA. […]"}, "[1]": {"system": "réseau de neurites de neurones corticaux primaires", "test": "Neurite network of primary cortical neurons intoxicated with Aβ 1-42 peptide (MAP-2 staining)", "assay_type": "cell-based, rat", "conditions": "two lowest concentrations 10 nM, 100 nM; pre-incubated 1 h before Aβ 1-42 20 µM, 24 h (Figure 2)", "excerpt": "as §1, §2, §3"}, "[2]": {"system": "neurones corticaux primaires de rat", "test": "Survival of primary cortical neurons intoxicated with Aβ 1-42 peptide (MAP-2 staining)", "assay_type": "cell-based", "conditions": "pre-incubated 1 h before Aβ 1-42 20 µM", "excerpt": "as §1, §2, §3"}, "[3]": {"system": "astrocytes sains (non traités par le peptide Aβ 1-42)", "test": "Proliferation of pure healthy astrocytes (MTT test, CellTiter 96 Aqueous One Solution)", "assay_type": "cell-based, rat (Wistar)", "conditions": "4 days incubation, no Aβ 1-42 (Figure 4)", "method": "En résumé, le cerveau entier d'un embryon âgé de 15 jours de rat (Wistar) est prélevé. Le cerveau entier est dissocié par trypsinisation. Les cellules sont suspendues dans un milieu de culture du milieu DMEM (Dulbecco's modified Eagle's medium) complémenté avec 2% de pénicilline (10,000 U/mL) et d'une solution de streptomycine (10 mg/mL), et 10% de sérum de veau fœtal (FCS). Les cellules sont ensemencées à une densité de 267 000 cellules par cm^2 dans un flacon de culture. Au stade de la confluence cellulaire, le flacon est secoué pendant 3 heures. Le surnageant de la culture cellulaire est enlevé, les cellules sont traitées par une solution de trypsine- EDTA (Pan Biotech) à une concentration finale de 0,05% trypsine et de 0,02% EDTA. Ensuite les cellules sont congelées afin de constituer une lignée cellulaire d'astrocytes.\nLes astrocytes (au stade : P4) sont ensemencées à une densité de 4 000 par puits d'une plaque de 96 puits avec de l'acide léontopodique B1 (dissous à différentes concentrations : 100 nM, 1 µM, 10 µM et 50 µM dans le milieu de culture) et sont cultivées à 37°C dans un incubateur contenant 95% d'air et 5% de CO2. Le milieu est changé tous les jours. Les astrocytes sont cultivés pendant 4 jours en présence d'acide léontopodique B1 avant de mesurer son effet sur la prolifération des astrocytes. […]"}}, "data": [{"smiles": "O=C(/C=C/c1ccc(O)c(O)c1)OC(C(=O)O)C(OC(=O)/C=C/c1ccc(O)c(O)c1)C(OC(=O)/C=C/c1ccc(O)c(O)c1)C(O)C(=O)O", "note": "(stereo not shown) [acide léontopodique B1, acide 3,4,5-tricaféoylhexarique]", "values": [{"measurement": "effet sur la survie des astrocytes", "setting": "astrocytes; all concentrations (10 nM to 10 µM)", "value": "effet protecteur"}, {"measurement": "mort cellulaire (astrocytes)", "setting": "astrocytes; three highest concentrations 100 nM, 1 µM, 10 µM", "value": "Aucune mort cellulaire n'a été observée"}, {"measurement": "effet sur le réseau de neurites", "setting": "[1]", "value": "effet significatif et important"}, {"measurement": "effet sur la survie des neurones", "setting": "[2]; 10 nM, 100 nM, 1 µM, 10 µM, 24 h, protective effect follows a bell-shaped curve (Figure 1)", "value": "effet significatif et important"}, {"measurement": "mort neuronale", "setting": "[2]; 100 nM and 1 µM, 24 h (Figure 1)", "value": "aucune mort neuronale n'a été observée"}, {"measurement": "effet sur la prolifération des astrocytes", "setting": "[3]; 100 nM up to 50 µM", "value": "aucun effet significatif"}, {"measurement": "concentration cellulaire", "setting": "[3]; highest concentration 50 µM", "value": "légère mais non significative diminution"}]}]}
